In patent publication US20260098030A1, “NEGATIVE ALLOSTERIC MODULATORS OF METABOTROPIC GLUTAMATE RECEPTOR 2” (Vanderbilt University, priority 2022, published 2026):
Values belong to the compound of their own block, whether it stands above or below them.

Key:
[1] = tested on: Dutch APP transgenic mice; settings: cited from earlier work
Rat mGlu3 = Rat mGlu3 (UniProt P31422); experiment: mGlu GIRK cell-based thallium flux assay, mGlu3; settings: HEK-293 cells co-expressing mGlu3 and GIRK, EC80 glutamate
rat mGlu2 = target: T1, rat mGlu2 (Rattus norvegicus, UniProt P31421); experiment: mGlu GIRK cell-based thallium flux assay, rat mGlu2; settings: HEK-293 cells co-expressing rat mGlu2 and GIRK, EC80 glutamate
T1 construct: expressed in transfected cells; host or cells: HEK-293 cells stably co-expressing GIRK channels
T1 sequence (P31421 19-872): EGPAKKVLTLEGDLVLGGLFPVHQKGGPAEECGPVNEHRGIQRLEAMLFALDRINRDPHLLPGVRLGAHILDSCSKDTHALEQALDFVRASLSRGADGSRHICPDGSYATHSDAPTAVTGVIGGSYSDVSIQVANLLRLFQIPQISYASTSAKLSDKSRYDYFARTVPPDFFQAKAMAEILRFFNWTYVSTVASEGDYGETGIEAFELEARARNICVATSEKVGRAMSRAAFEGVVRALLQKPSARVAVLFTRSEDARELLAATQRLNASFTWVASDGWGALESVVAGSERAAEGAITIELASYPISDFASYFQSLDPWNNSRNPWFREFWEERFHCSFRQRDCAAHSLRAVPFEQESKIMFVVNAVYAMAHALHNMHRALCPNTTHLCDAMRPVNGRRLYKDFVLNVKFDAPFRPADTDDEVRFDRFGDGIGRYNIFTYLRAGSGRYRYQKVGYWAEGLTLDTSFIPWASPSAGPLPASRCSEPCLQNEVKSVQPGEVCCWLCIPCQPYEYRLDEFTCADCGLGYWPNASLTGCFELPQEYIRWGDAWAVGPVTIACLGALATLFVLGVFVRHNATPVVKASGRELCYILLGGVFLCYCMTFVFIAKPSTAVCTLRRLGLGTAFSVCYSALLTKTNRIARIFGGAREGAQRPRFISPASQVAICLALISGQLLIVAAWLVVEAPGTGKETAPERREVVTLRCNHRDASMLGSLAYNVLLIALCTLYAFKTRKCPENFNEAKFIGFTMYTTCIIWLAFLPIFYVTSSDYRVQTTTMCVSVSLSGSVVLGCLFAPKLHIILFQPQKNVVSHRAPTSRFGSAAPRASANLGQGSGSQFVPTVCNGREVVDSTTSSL
Summary of the method: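 HEK-293 cells stably co-expressing GIRK with human mGlu3, human mGlu2 or rat mGlu2 were loaded 1 h at 25° C with Thallos dye, then given compound (30 μM to 1.5 nM final, 10-point) for 2 min 20 s before EC80 glutamate plus thallium. Baseline-corrected fluorescence slope, normalized to ECmax glutamate, fitted to 4-parameter logistic for IC50.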

Helpless (H) mice = settings: cited from earlier work; for activity in the tail suspension test: Helpless (H) mice; for antidepressant effect in helpless mice: LY341495 acute administration, fluoxetine chronic (21 days) treatment
mouse = settings: normal animals; cited from earlier work
[2] = tested on: central mGlu2 and mGlu3 receptors; settings: in vivo; cited from earlier work
mice = settings: cited from earlier work
C57B16/J mice = settings: cited from earlier work
rat = settings: normal animals; cited from earlier work
mGlu2 = settings: cited from earlier work
[3] = treatment for 7 days; cited from earlier work
[4] = tested on: olfactory bulbectomized rats; settings: repeated administration for 14 days; cited from earlier work
[5] = in vivo; cited from earlier work
[6] = tested on: social isolation-reared mice; settings: cited from earlier work

Compound: CCCCCCCOC(=O)[C@@]1(F)[C@@H]2C[C@@H](OCc3ccc(Cl)c(Cl)c3)[C@@](N)(C(=O)O)[C@@H]21 [BCI-838]
- duration of inhibition of group II mGlu receptors by brain concentration of active metabolite BCI-632 ([1]; once-daily oral dosing): 22 h
- learning and memory impairment ([1]; three months of treatment, Dutch APP transgene): reversed Dutch APP transgene-associated learning and memory impairment
- anxiolytic effects ([1]; three months of treatment): provided anxiolytic effects
- levels of monomeric and oAβ peptides in the hippocampus and cortex ([1]; three months of treatment, two AD mouse models): decreased the levels of monomeric and oAβ peptides
- hippocampal progenitor cell proliferation ([1]; wild-type and Alzheimer's diseased mice, 3 months): stimulated hippocampal progenitor cell proliferation

Compound: N[C@](CC1c2ccccc2Oc2ccccc21)(C(=O)O)[C@H]1C[C@@H]1C(=O)O [LY341495]
- activity in the tail suspension test (Helpless (H) mice): active
- antidepressant effect in helpless mice (Helpless (H) mice): potent antidepressant effect
- antidepressant-like effects in mouse tail-suspension test (mouse): Antidepressant-like effects
- hypolocomotor effect of mGlu2/3 agonist (LY379268) [2]: achieved the same result
- marble-burying behavior (mice): significantly reduce marble-burying behavior
- immobility time in the FST (C57B16/J mice): dose-dependently reduced immobility time
- antidepressant-like effects in rat forced swim test (rat): Antidepressant-like effects
- Aβ-induced neurodegeneration (mGlu2): this effect was prevented

Compound: Cc1ncc(-c2cc3c(cc2-c2ccc(F)cc2)C(=O)NC3)s1 [Compound 5, 6-(4-fluorophenyl)-5-(2-methylthiazol-5-yl)isoindolin-1-one]
- IC50 (Rat mGlu3): 5820 nM
- IC50 (rat mGlu2): 839 nM

Compound: N#Cc1cccc(-c2cc3c(cc2-c2ccc(F)cc2F)C(=O)NC3)c1F [Compound 94, 3-(6-(2,4-difluorophenyl)-1-oxoisoindolin-5-yl)-2-fluorobenzonitrile]
- IC50 (Rat mGlu3): > 10000 nM
- IC50 (rat mGlu2): 477 nM

Compound: Cc1cc(C#N)cc(-c2cc3c(cc2-c2ccc(F)cc2F)C(=O)NC3)c1 [Compound 91, 3-(6-(2,4-difluorophenyl)-1-oxoisoindolin-5-yl)-5-methylbenzonitrile]
- IC50 (Rat mGlu3): > 10000 nM
- IC50 (rat mGlu2): 697 nM

Compound: CNCCC(Oc1ccc(C(F)(F)F)cc1)c1ccccc1 (centres unmarked) [fluoxetine]
- antidepressant effect in helpless mice (Helpless (H) mice): full antidepressant effect

Compound: Cc1ccc(-c2cc3c(cc2-c2ccc(F)cc2F)C(=O)NC3)cn1 [Compound 69, 6-(2,4-difluorophenyl)-5-(6-methylpyridin-3-yl)isoindolin-1-one]
- IC50 (Rat mGlu3): > 10000 nM
- IC50 (rat mGlu2): 659 nM

Compound: Cc1cc(-c2cccc(C3=Nc4cc(C)c(C(F)(F)F)cc4NC(=O)C3)c2)cc(C)n1 [RO4491533]
- activity in the tail suspension test (Helpless (H) mice): active
- hypolocomotor effect of mGlu2/3 agonist (LY379268) [2]: reversed the hypolocomotor effect
- immobility time in the FST (C57B16/J mice): dose-dependently reduced immobility time

Compound: N[C@]1(C(=O)O)[C@H]2[C@@H](C[C@H]1OCc1ccc(Cl)c(Cl)c1)[C@]2(F)C(=O)O [MGS0039]
- antidepressant-like effects in mouse tail-suspension test (mouse): Antidepressant-like effects
- marble-burying behavior (mice): reduced marble-burying behavior in a significant and dose dependent manner
- spontaneous locomotor activity (mice): no significant change
- number of escape failures, learned helplessness test [3]: significantly reduced the number of escape failures
- hyperactivity in the open field test [4]: attenuated the hyperactivity
- learning deficit in the passive avoidance test [4]: attenuated the learning deficit
- freezing behavior, CFS model [5]: significantly decreased freezing behavior
- immobility in the FST [6]: reversed the increased immobility
- antidepressant-like effects in rat forced swim test (rat): Antidepressant-like effects

Compound: O=C1NCc2cc(-c3cnc4[nH]ccc4c3)c(-c3ccc(F)cc3F)cc21 [Compound 87, 6-(2,4-difluorophenyl)-5-(1H-pyrrolo[2,3-b]pyridin-5-yl)isoindolin-1-one]
- IC50 (Rat mGlu3): > 10000 nM
- IC50 (rat mGlu2): 618 nM

Compound: CCS(=O)(=O)N(Cc1cccnc1)c1cccc(-c2ccc(C#N)cc2)c1 [LY566332]
- Aβ-induced neurodegeneration (mGlu2): amplified Aβ-induced neurodegeneration

Other lines, results leading:

- IC50 (Rat mGlu3): > 10000 nM
- IC50 (rat mGlu2): 953 nM
Compound: Cc1ccc(-c2cc3c(cc2-c2ccc(F)cc2)C(=O)NC3)nc1 [Compound 52, 6-(4-fluorophenyl)-5-(5-methylpyridin-2-yl)isoindolin-1-one]

- IC50 (Rat mGlu3): > 10000 nM
- IC50 (rat mGlu2): 953 nM
Compound: O=C1NCc2cc(-c3ccc4ocnc4c3)c(-c3ccc(F)cc3F)cc21 [Compound 24, 5-(benzo[d]oxazol-5-yl)-6-(2,4-difluorophenyl)isoindolin-1-one]

- IC50 (Rat mGlu3): > 10000 nM
- IC50 (rat mGlu2): 534 nM
Compound: COc1cncc(-c2cc3c(cc2-c2ccc(F)cc2F)C(=O)NC3)c1 [Compound 101, 6-(2,4-difluorophenyl)-5-(5-methoxypyridin-3-yl)isoindolin-1-one]

- IC50 (Rat mGlu3): > 10000 nM
- IC50 (rat mGlu2): 762 nM
Compound: O=C1NCc2cc(C3CCOCC3)c(-c3ccc(F)cc3)cc21 [Compound 64, 6-(4-fluorophenyl)-5-(tetrahydro-2H-pyran-4-yl)isoindolin-1-one]

- IC50 (Rat mGlu3): 4790 nM
- IC50 (rat mGlu2): 347 nM
Compound: O=C1NCc2cc(-c3ccn(C4CC4)n3)c(-c3ccc(F)cc3F)cc21 [Compound 108, 5-(1-cyclopropyl-1H-pyrazol-3-yl)-6-(2,4-difluorophenyl)isoindolin-1-one]
